Results as given in patent publication US20090253745A1, “MODULATORS OF OCULAR OXIDATIVE STRESS” (SIRION THERAPEUTICS, INC., priority 2007, published 2009).

Experiments:
[1] = in vitro; assay type: in vitro ADME; conditions: mouse; 1 mM TAPP1, anterior segments of twelve eyeglobes in 0.5 ml MEM, 37° C.; read-out: half-life of hydrolysis
Experimental: FIG. 2. In vitro hydrolysis of TAPP1 by anterior segments from mouse eyeglobes. Anterior segments were isolated from twelve wild-type mouse eyeglobes, and cultured in 0.5 ml of MEM media. TAPP1 was added to the culture to a final concentration of 1 mM, and the sample was incubated at 37° C. At 0, 1, 5, 15, 30, 60 and 120 min following incubation, 20 μl aliquot samples were removed from the culture. The aliquots were mixed with equal volume of ice-cold methanol, and incubated on ice for 10 min, followed by centrifugation at 25,000 g to precipitate proteins. TAPP1 content in the supernatant was analyzed by a capillary reverse phase C18 column. The relative quantity of TAPP1 was determined by integration of chromatographic peak area. […] Release of the two products of TAPP1 hydrolysis (designated HP-1 and HP-2) was […] to the rate of TAPP1 hydrolysis (not shown). Corneal esterases may be largely responsible for the hydrolysis of TAPP1.
The compound TAPP1 (C18H24N4O3), MW 344.18, is formulated as described above. A 40 mM solution of TAPP1 is used. […] TAPP content of the supernatant is analyzed by a capillary reverse phase C18 column. […] The relative quantity of the TAPP is determined by area integration of the TAPP elution peak. […] Isoprostanes are measured with a commercially available in vitro assay kit.

[2] = tested on: eyeglobes of mice; assay: Ex vivo lens toxicity test, whole eyeglobes cultured overnight; conditions: overnight incubation, media containing 45% β-cyclodextrin, 37° C.
Experimental: FIG. 3. Ex vivo lens toxicity test of TAPP1. The eyeglobes of mice (aged 42 days) were cultured overnight either with control solution (media containing 45% β-cyclodextrin) or TAPP1 (TAPP1 in media containing 45% β-cyclodextrin), at 37° C. overnight, and in 95% air/5% CO2. […] To determine the effects of TAPP1 on isolated lenses, intact lenses were dissected from wild-type mouse eyeglobes, and incubated in DMEM media in a 96 well tissue culture plate. Groups of 3-6 lenses were incubated in 200 μl of media alone (negative control), 4% (2-hydroxypropyl)-β-cyclodextrin (carrier control), 8 mM hydrogen peroxide (H2O2, positive control for lens toxicity), 4 mM TAPP1-O (free radical form), 4 mM TAPP1-R (reduced form), and 4 mM of the two products of TAPP1-R hydrolysis (HP-1 and HP-2), respectively. β-cyclodextrin was included as a carrier control because all of the stock solutions contained 45% (2-hydroxypropyl)-β-cyclodextrin. The samples were incubated in 5% CO2 incubator at 37 C for 2 days.
The TAPP compositions are intended for topical delivery to the anterior portion of the eye. […] Morphological or anatomical effects are determined by comparison of TAPP-treated samples to samples incubated with either the TAPP vehicle or samples which are exposed (10 min treatment) to 100% ethanol (a positive control for lens toxicity). […]

CC1(C)CC(OC(=O)c2cc(-c3ccncc3)n[nH]2)CC(C)(C)N1[O] [TAPP1, 1-oxyl-2,2,6,6-tetramethylpiperidin-4-yl 3-(pyridin-4-yl)-1H-pyrazole-5-carboxylate]
half-life [1]: ~10 min
cataract or other overt toxicity in eyeglobes [2]: no cataract or other overt toxicity
